# Assay results published in patent US6375979B2 (Somerset Pharmaceuticals, Inc., priority 1995, dated 2002).
# Where “and” joins values, the source holds several entries; their conditions need not be identical. Equal entries are not always repeated.
# Experiments:
# [1] = target: T1, dopamine re-uptake system (Rattus norvegicus, UniProt P23977); assay: Inhibition of dopamine re-uptake in rat neostriatal synaptosome preparation; assay type: biochemical
# T1 construct: (synaptosome preparation) was obtained form fresh rat neostriatal brain tissue; from tissue; host or cells: rat neostriatum, synaptosome preparation
# Method: An in vitro nerve terminal preparation (synaptosome preparation) was prepared using fresh rat neostriatal tissue.
# FIG. 19: Determination of IC50 Values for Inhibition of Dopamine Re-Uptake.
# An in vitro nerve-terminal preparation (synaptosome preparation) was obtained form fresh rat neostriatal brain tissue. Transport by dopamine nerve-terminals was estimated by measuring the uptake of tritiated dopamine.
# wobbler mouse = assay: Wobbler mouse model of motor neuron disease; assay type: in vivo; conditions: 0.1 mg/kg daily intra-peritoneal for 30 days; range in parentheses
# Method: The ability of the enantiomers of DMS to prevent neurological deterioration was examined by administering the agents to the wobbler mouse, an animal model of motor neuron diseases, particularly amyotrophic lateral sclerosis (ALS).
# A 0.1 mg/kg dose of R(−)DMS, S(+)DMS or placebo was administered to wobbler mice by daily intra-peritoneal injection for a period of 30 days in a randomized, double-blind study. At the end of this time mice were examined for grip strength, running time, resting locomotive activity and graded for semi-quantitative paw posture abnormalities, and semi-quantitative walking abnormalities. The investigators who prepared and administered the test drugs to the animals were different than those who analyzed behavioral changes.
# Assays and grading were performed essentially as described in Mitsumoto et al., Ann. Neurol. 36:142-148 (1994). Grip strength of the front paws of a mouse was determined by allowing the animal to grasp a wire with both paws. […] The reading on the dynamometer at the point of release is taken as a measure of grip strength.
# Running time is defined as the shortest time necessary to traverse a specified distance, e.g. 2.5 feet and the best time of several trials is recorded. […]
# Locomotive activity is determined by transferring animals to an examination area in which the floor is covered with a square grid. […]
# interleukin-2 production = assay: Concanavalin A-induced interleukin-2 production by spleen cells of treated old rats; assay type: in vivo, rat; conditions: for IL-2 % control / IL-2 U/ml mean: ip daily 60 days
# Method: The present experiments utilized a rat model to examine the ability of R(−)DMS and S(+)DMS to restore immunological function. Rats were divided into the following experimental groups:
# (§1) Rats were administered saline or test agent ip, daily for 60 days. They were then maintained for an additional “wash out” period of 10 days during which time no treatment was given. At the end of this time, animals were sacrificed and their spleens were removed. The spleen cells were then assayed for a variety of factors which are indicative of immune system function. Specifically, standard tests were employed to determine the following:
# 2) in vitro concanavalin A-induced production of interleukin-2;
# γ-interferon production = γ-interferon production by concanavalin A-stimulated spleen cells of treated old rats; assay type: in vivo, rat; conditions: for IFN-γ % control / IFN-γ U/ml mean: old rats, ip daily 60 days, 1.0 mg/kg (for DMS enantiomers)
# Method: Rats were divided into the following experimental groups:
# as §1
# 1) in vitro production of γ-interferon by concanavalin A-stimulated spleen cells;
# rat spleens = assay: Histological immunofluorescence of spleen innervation in old rats; assay type: in vivo; conditions: ip daily 60 days
# Method: as §1
# Histological immunofluorescence studies show a dramatic loss of innervation in rat spleens with age.
# [2] = tested on: cultured rat mesencephalic cells exposed to NMDA; assay: NMDA model of cell death: [3H]-dopamine uptake; conditions: 100 μM NMDA exposure
# [3] = tested on: cultured rat mesencephalic cells; assay: Medium change (glutamate receptor dependent) model of cell death: [3H]-dopamine uptake; conditions: for more axonal growth and terminal axonal survival compared to untreated control cells / 3H-Dopamine uptake as a percentage + SEM: 10 μM; for more axonal growth and terminal axonal survival compared to untreated control cells / 3H-Dopamine uptake as a percentage + SEM / Dopamine uptake, % control, Mean / Dopamine uptake, % control, individual cultures / Dopamine uptake, counts/min, Mean / Dopamine uptake, counts/min, individual cultures: medium change model; for 3H-Dopamine uptake as a percentage + SEM: control = 100; for neuron protection by measurement of dopamine uptake (FIG. 15): glutamate receptor dependent model
# Method: Preparations are then added to 10 ml Ecoscint (National Diagnostics) and counted in a scintillation spectrometer.
# In these experiments, cells were plated and allowed to stabilize for several days.
# [4] = 1.0 mg/kg (for DMS enantiomers)
# T1 sequence (P23977 whole entry): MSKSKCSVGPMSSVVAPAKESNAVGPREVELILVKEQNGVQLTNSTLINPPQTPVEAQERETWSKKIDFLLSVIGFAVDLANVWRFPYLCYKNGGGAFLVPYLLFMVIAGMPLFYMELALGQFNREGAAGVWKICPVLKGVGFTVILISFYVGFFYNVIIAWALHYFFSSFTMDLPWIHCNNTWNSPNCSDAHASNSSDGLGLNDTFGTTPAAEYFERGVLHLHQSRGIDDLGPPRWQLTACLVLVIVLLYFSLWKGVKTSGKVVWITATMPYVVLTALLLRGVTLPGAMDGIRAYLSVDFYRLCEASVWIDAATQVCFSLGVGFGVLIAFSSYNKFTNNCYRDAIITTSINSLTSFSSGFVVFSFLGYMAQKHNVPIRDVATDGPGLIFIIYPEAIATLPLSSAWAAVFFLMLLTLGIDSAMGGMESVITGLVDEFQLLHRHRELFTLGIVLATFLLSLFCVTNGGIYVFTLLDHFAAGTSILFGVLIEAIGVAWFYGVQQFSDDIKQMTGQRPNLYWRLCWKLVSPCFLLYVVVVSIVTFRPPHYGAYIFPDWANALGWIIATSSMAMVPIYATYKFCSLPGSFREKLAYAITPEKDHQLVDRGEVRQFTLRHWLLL
compound,measurement,setting,value
"C#CCN[C@@H](C)Cc1ccccc1 (single isomer, unassigned) [S(+)DMS, ent-desmethylselegiline]",times more potent than either selegiline or R(−)DMS at inhibiting dopamine re-uptake,[1],4-5 times
same,"3H-Dopamine uptake, % Reduction x ± SEM",[1]; 1 μM,24.1 ± 11.7%
same,"3H-Dopamine uptake, % Reduction x ± SEM",[1]; 10 μM,47.0 ± 3.1%
same,"3H-Dopamine uptake, % Reduction x ± SEM",[1]; 100 μM,15.3 ± 7.7%
same,Mean Grip Strength (gm),wobbler mouse,14 (7-20) gm
same,IL-2 production after treatment,interleukin-2 production,not enhanced
same,IL-2 % control,interleukin-2 production; [4],291%
same,IL-2 U/ml mean,interleukin-2 production; [4],57.12 U/ml
same,γ-interferon levels in old rats after administration,γ-interferon production; most dramatic increases at 1.0 mg/kg body weight,restoration of γ-interferon levels
same,IFN-γ % control,γ-interferon production,261%
same,IFN-γ U/ml mean,γ-interferon production,918 U/ml
same,"innervation in the spleens, histological examination",rat spleens,did not show any effect
same,"Dopamine uptake, % control, Mean",[2]; 0.5 μM,187.4%
same,"Dopamine uptake, % control, individual cultures",[2]; 0.5 μM,164.2% and 179.0% and 181.6% and 242.7% and 169.2%
same,"Dopamine uptake, counts/min, Mean",[2]; 0.5 μM,12658.2 counts/min
same,"Dopamine uptake, counts/min, individual cultures",[2]; 0.5 μM,11096 counts/min and 12092 counts/min and 12269 counts/min and 16399 counts/min and 11435 counts/min
same,"Dopamine uptake, % control, Mean",[2]; 5.0 μM,246.9%
same,"Dopamine uptake, % control, individual cultures",[2]; 5.0 μM,229.9% and 300.6% and 245.4% and 235.8% and 222.8%
same,"Dopamine uptake, counts/min, Mean",[2]; 5.0 μM,16681.6 counts/min
same,"Dopamine uptake, counts/min, individual cultures",[2]; 5.0 μM,15535 counts/min and 20313 counts/min and 16579 counts/min and 15929 counts/min and 15052 counts/min
same,"Dopamine uptake, % control, Mean",[2]; 50 μM,448.9%
same,"Dopamine uptake, % control, individual cultures",[2]; 50 μM,371.5% and 384.0% and 422.5% and 577.9% and 488.8%
same,"Dopamine uptake, counts/min, Mean",[2]; 50 μM,30331.2 counts/min
same,"Dopamine uptake, counts/min, individual cultures",[2]; 50 μM,25101 counts/min and 25944 counts/min and 28545 counts/min and 39042 counts/min and 33024 counts/min
same,more axonal growth and terminal axonal survival compared to untreated control cells,[3],134%
same,3H-Dopamine uptake as a percentage + SEM,[3],234 ± 38.36%
desmethylselegiline [R(−)DMS],"3H-Dopamine uptake, % Reduction x ± SEM",[1]; 1 μM,10.7 ± 2.8%
same,"3H-Dopamine uptake, % Reduction x ± SEM",[1]; 10 μM,20.1 ± 3.1%
same,"3H-Dopamine uptake, % Reduction x ± SEM",[1]; 100 μM,11.5 ± 1.0%
same,"3H-Dopamine uptake, % Reduction x ± SEM",[1]; 100 μM (last row of each agent),51.3 ± 2.6%
same,Mean Grip Strength (gm),wobbler mouse,20 (0-63) gm
same,IL-2 production after treatment,interleukin-2 production,not enhanced
same,IL-2 % control,interleukin-2 production; [4],223%
same,IL-2 U/ml mean,interleukin-2 production; [4],43.7 U/ml
same,IL-2 U/ml mean,interleukin-2 production; […] (for R(−)DMS by group order),64.54 U/ml
same,IL-2 U/ml mean,"interleukin-2 production; dose not printed in row, by group order […]",55.17 U/ml
same,IFN-γ % control,γ-interferon production,777%
same,IFN-γ U/ml mean,γ-interferon production,2728 U/ml
same,"innervation in the spleens, histological examination",rat spleens,significant increase in innervation
same,"Dopamine uptake, % control, Mean",[2]; 0.5 μM,138.6%
same,"Dopamine uptake, % control, individual cultures",[2]; 0.5 μM,167.3% and 138.9% and 132.9% and 133.6% and 120.4%
same,"Dopamine uptake, counts/min, Mean",[2]; 0.5 μM,9365.2 counts/min
same,"Dopamine uptake, counts/min, individual cultures",[2]; 0.5 μM,11304 counts/min and 9385 counts/min and 8976 counts/min and 9028 counts/min and 8133 counts/min
same,"Dopamine uptake, % control, Mean",[2]; 5.0 μM,177.6%
same,"Dopamine uptake, % control, individual cultures",[2]; 5.0 μM,163.0% and 199.9% and 169.8% and 204.0% and 151.4%
same,"Dopamine uptake, counts/min, Mean",[2]; 5.0 μM,12001.8 counts/min
same,"Dopamine uptake, counts/min, individual cultures",[2]; 5.0 μM,11014 counts/min and 13509 counts/min and 11471 counts/min and 13786 counts/min and 10229 counts/min
same,"Dopamine uptake, % control, Mean",[2]; 50 μM,304.3%
same,"Dopamine uptake, % control, individual cultures",[2]; 50 μM,262.1% and 341.8% and 318.7% and 259.3% and 339.9%
same,"Dopamine uptake, counts/min, Mean",[2]; 50 μM,20562.2 counts/min
same,"Dopamine uptake, counts/min, individual cultures",[2]; 50 μM,17708 counts/min and 23090 counts/min and 21530 counts/min and 17520 counts/min and 22963 counts/min
same,"Dopamine uptake, % control, Mean",[3]; 0.5 μM,141.9%
same,"Dopamine uptake, % control, individual cultures",[3]; 0.5 μM,142.3% and 152.4% and 142.6% and 130.4%
same,"Dopamine uptake, counts/min, Mean",[3]; 0.5 μM,29800.75 counts/min
same,"Dopamine uptake, counts/min, individual cultures",[3]; 0.5 μM,29885 counts/min and 32002 counts/min and 29934 counts/min and 27382 counts/min
same,neuron protection by measurement of dopamine uptake (FIG. 15),[3]; 5 μM,neuron protection
same,"Dopamine uptake, % control, Mean",[3]; 5.0 μM,153.7%
same,"Dopamine uptake, % control, individual cultures",[3]; 5.0 μM,155.2% and 142.1% and 173.2% and 144.5%
same,"Dopamine uptake, counts/min, Mean",[3]; 5.0 μM,32280 counts/min
same,"Dopamine uptake, counts/min, individual cultures",[3]; 5.0 μM,32577 counts/min and 29831 counts/min and 36370 counts/min and 30342 counts/min
same,more axonal growth and terminal axonal survival compared to untreated control cells,[3],40%
same,3H-Dopamine uptake as a percentage + SEM,[3],140.82 ± 26.20%
same,neuron protection by measurement of dopamine uptake (FIG. 15),[3]; 50 μM,neuron protection
same,"Dopamine uptake, % control, Mean",[3]; 50 μM,185.5%
same,"Dopamine uptake, % control, individual cultures",[3]; 50 μM,178.3% and 186.7% and 186.3% and 190.6%
same,"Dopamine uptake, counts/min, Mean",[3]; 50 μM,38944.75 counts/min
same,"Dopamine uptake, counts/min, individual cultures",[3]; 50 μM,37440 counts/min and 39200 counts/min and 39126 counts/min and 40013 counts/min
